{"source": "patent US5498522A", "about": "“Methods for the use of spermidine/spermine N^1 -acetyltransferase as a prognostic indicator and/or a tumor response marker” (priority 1993, dated 1996)", "key": {"cell growth": {"tested_on": "cell growth", "details": "in-vitro; cited from earlier work"}, "[1]": {"tested_on": "MALME-3 human melanoma cells", "test": "growth of MALME-3 melanoma cells in-vitro (FIG. 5)", "type": "cell-based", "details": "MALME-3, 10 μM BESPM, 48 hours", "protocol": "(§1) As mentioned previously, cells from malignant solid tumor respond to polyamine analog therapy heterotypically. SSAT induction and antitumor response may vary not only among the solid tumor tissue type, but also with the clonal line of tumor of a particular solid tissue type. However, a correlation between the level of induction of SSAT and the potency of antitumor response has been observed in tumors of a particular solid tissue type. For example, seven human melanoma cell lines were assayed in-vitro for their response, as determined by cell growth and level of SSAT induction, to 10 μM BESPM at 48 hours post-treatment. As summarized in FIG. 5, growth among the cell lines decreases as SSAT induction increases."}, "polyamine uptake": {"tested_on": "polyamine uptake", "details": "cited from earlier work"}, "[2]": {"tested_on": "Ebey human melanoma cells", "test": "growth of Ebey melanoma cells in-vitro (FIG. 5)", "type": "cell-based", "details": "10 μM BESPM, 48 hours", "protocol": "as §1"}, "MALME-3 melanoma cells": {"tested_on": "MALME-3 melanoma cells", "test": "N^1 -acetylspermidine in MALME-3 cell cultures", "type": "cell-based, human", "details": "MALME-3, 10 μm BESPM, 48 hours", "protocol": "To illustrate this embodiment, LOX and MALME-3 cell cultures were treated for 48 hours with 10 μm BESPM. The cells from each culture were harvested and assayed for SSAT activity. Media samples were prepared by treating the samples with 50% trichloroacetic acid to give a final concentration of 10% and then centrifuged at 15,000×g for 10 minutes. The supernatant was then filtered through a 0.22-μm filter, extracted with several volumes of ether, lyophilized, and resuspended in 10% trichloroacetic acid. N^1 -acetylspermidine levels of cells and media samples were then measured by use of high-pressure liquid chromatography. […] Similarly, N^1 -acetylspermidine levels from MALME-3 control cells, media from control cell cultures, and treated MALME-3 cells contained minimal levels of N^1 -acetylspermidine."}, "[3]": {"tested_on": "SH-1 human melanoma xenografts", "test": "antitumor response against SH-1 human melanoma xenografts in mice", "type": "in vivo", "details": "SH-1, BENSPM at 80 mg/kg", "protocol": "(§2) […] where 1 represents length; w--width; and h--height. Tumor sizes were monitored 2 times/week until the median volume (V=0.4(a^2 ×b) where a is the smaller of the two perpendicular tumor diameters). As an indication of drug toxicity, animal weights were also recorded at the time of tumor volume measurement. Statistical analyses were performed on mouse tumor size and weight parameters by using the Mann-Whitney test.\n(§3) Tumor growth suppression was measured by plotting the mean tumor volume versus the number of days post-inoculation with polyamine analog (growth curve analyses). Suppression is determined by comparison with the growth of untreated tumors (%T/C). More specifically,: %T/C is (treated tumor volume minus pretreatment volume) divided by (control tumor volume minus pretreatment volume)×100. Typically this is measured either when the control tumor volume reaches 1000 mm^3, or at the last day of treatment.\n(§4) Tumor regression is measured as a percentage representing the average percentage of decrease in tumor volume from the largest pretreatment volume value.\n(§5) Repression of regrowth is represented as regrowth delay, determined as the number of days following cessation of treatment when median group tumor volume exceeds 200 mm^3 (an arbitrary indication of regrowth which was determined statistically).\n(§6) For example, human melanoma cell lines including MALME-3, SH-1, PANUT-3 and LOX were evaluated for the level of SSAT induction and potency of antitumor response following BENSPM treatment (80 mg/kg 3×/day×6 days) using the methodology previously described in this embodiment. […] The baseline of SSAT activity in the control mice (2 examined of 7 mice) ranged from 50 to 90 pmol/min/mg. […] Note that following BENSPM treatment (as discussed above in the context of Tables 4 and 5), suppression of tumor growth of PANUT-3, unlike suppression of MALME-3 growth, lasted for only about 12 days. Further, the levels of SSAT in PANUT-3 at two weeks post-treatment, approached the levels in the control and correlated with the loss of antitumor activity."}, "[4]": {"tested_on": "polyamine pools of host tissue", "test": "polyamine pools in host tissue of treated mice", "type": "in vivo, mouse", "parameters": "unit not given here", "details": "40 mg/kg"}, "[5]": {"tested_on": "spermidine/spermine N^1 -acetyltransferase (SSAT)", "test": "SSAT induction in host tissue of treated mice", "type": "in vivo, mouse", "details": "spleen (PANUT-3 mice), 80 mg/kg"}, "[6]": {"tested_on": "PANUT-3 human melanoma xenografts", "test": "antitumor response against PANUT-3 human melanoma xenografts in mice", "type": "in vivo", "protocol": "as §2, §3, §4, §5, §6"}, "[7]": {"tested_on": "polyamine pools of melanoma tumor", "test": "polyamine pools in human melanoma xenografts in-vivo", "details": "for polyamine pools: 16 hours after final injection"}, "[8]": {"tested_on": "S-adenosylmethionine decarboxylase (SAMDC)", "test": "SAMDC activity in human melanoma xenografts in-vivo"}, "[9]": {"tested_on": "human melanoma xenografts", "test": "antitumor response, human melanoma xenografts, dose comparison and general", "type": "in vivo", "details": "MALME-3, SH-1, PANUT-3, LOX", "protocol": "The in-vivo antitumor activities of BESPM, BEHSPM, and BENSPM, were compared against various human xenografts in nude athymic mice. Cultured human tumor cells were first passaged several times in female HSD nude athymic mice. Fragments of resultant tumor were implanted into mice via subcutaneous trocar implantation. Mice of different treatment groups were treated with one or more of the three bis-ethyl spermine analogs BESPM, BEHSPM, and BENSPM. Anti-proliferative activity was monitored by antitumor responses including tumor growth suppression, tumor regression, or repression of regrowth.\nas §6"}, "[10]": {"details": "MALME-3 tumor, 40 mg/kg 3x/day 6 days, 16 hrs post-treatment"}, "[11]": {"details": "MALME-3 tumor, 40 mg/kg, 2 wks post-treatment"}}}
{"smiles": "CCNCCCNCCCCNCCCNCC", "note": "[BESPM, N^1,N^12-bis(ethyl)spermine]", "values": [{"measurement": "concentration inhibiting cell growth", "setting": "cell growth", "result": "1 to 10", "unit": "µM"}, {"measurement": "growth inhibition (FIG. 5)", "setting": "[1]", "result": "greatest growth inhibition"}, {"measurement": "polyamine uptake", "setting": "polyamine uptake", "result": "suppresses polyamine uptake"}, {"measurement": "growth inhibition (FIG. 5)", "setting": "[2]", "result": "greatest growth inhibition"}, {"measurement": "N^1 -acetylspermidine Intracellular", "setting": "MALME-3 melanoma cells", "result": 0.1, "unit": "nmol/culture"}]}
{"smiles": "CCNCCCNCCCNCCCNCC", "note": "[BENSPM, N^1,N^11 -bis(ethyl)norspermine]", "values": [{"measurement": "% T/C at 1 g", "setting": "[3]", "result": "< 0", "unit": "%"}, {"measurement": "Tumor Regression", "setting": "[3]", "result": "Present"}, {"measurement": "Regrowth Delay", "setting": "[3]; dt 15 days", "result": 2.1, "unit": "× dt"}, {"measurement": "No Regrowth", "setting": "[3]; for duration of experiment", "result": "1/5"}, {"measurement": "PUT pool", "setting": "[4]; kidney, 2 wks post-treatment", "result": "20/20"}, {"measurement": "SPD pool", "setting": "[4]; kidney, 2 wks post-treatment", "result": "210/210"}, {"measurement": "SPM pool", "setting": "[4]; kidney, 2 wks post-treatment", "result": "360/370"}, {"measurement": "PUT pool", "setting": "[4]; kidney, 16 hrs post-treatment", "result": "100/40"}, {"measurement": "SPD pool", "setting": "[4]; kidney, 16 hrs post-treatment", "result": "100/100"}, {"measurement": "SPM pool", "setting": "[4]; kidney, 16 hrs post-treatment", "result": "260/250"}, {"measurement": "PUT pool", "setting": "[4]; liver, 2 wks post-treatment", "result": "20/20"}, {"measurement": "SPD pool", "setting": "[4]; liver, 2 wks post-treatment", "result": "530/530"}, {"measurement": "SPM pool", "setting": "[4]; liver, 2 wks post-treatment", "result": "400/330"}, {"measurement": "PUT pool", "setting": "[4]; liver, 16 hrs post-treatment", "result": "90/100"}, {"measurement": "SPD pool", "setting": "[4]; liver, 16 hrs post-treatment", "result": "80/90"}, {"measurement": "SPM pool", "setting": "[4]; liver, 16 hrs post-treatment", "result": "170/200"}, {"measurement": "SSAT activity", "setting": "[5]; 2 wks post-treatment", "result": "48/40"}, {"measurement": "SSAT activity", "setting": "[5]; 16 hrs post-treatment", "result": "163/322"}, {"measurement": "tumor regression, PANUT-3 versus MALME-3", "setting": "[6]; BENSPM 80 mg/kg 3×/day×6 days", "result": "significantly more tumor regression"}, {"measurement": "% T/C at 1 g", "setting": "[6]; PANUT-3, BENSPM at 80 mg/kg", "result": 10, "unit": "%"}, {"measurement": "Tumor Regression", "setting": "[6]; PANUT-3, BENSPM at 80 mg/kg", "result": "Major"}, {"measurement": "Regrowth Delay", "setting": "[6]; PANUT-3, BENSPM at 80 mg/kg, dt 7 days", "result": 2.7, "unit": "× dt"}, {"measurement": "No Regrowth", "setting": "[6]; PANUT-3, BENSPM at 80 mg/kg, for duration of experiment", "result": "0/5"}, {"measurement": "duration of suppression of tumor growth", "setting": "[6]; PANUT-3 xenograft, following BENSPM treatment", "result": "about 12 days"}, {"measurement": "PUT pool", "setting": "[7]; [10]", "result": "20/20"}, {"measurement": "SPD pool", "setting": "[7]; [10]", "result": "50/20"}, {"measurement": "SPM pool", "setting": "[7]; [10]", "result": "40/30"}, {"measurement": "N-acetylspermidine level", "setting": "[7]; [11]", "result": "240/180"}, {"measurement": "PUT pool", "setting": "[7]; [11]", "result": "370/290"}, {"measurement": "SPD pool", "setting": "[7]; [11]", "result": "560/160"}, {"measurement": "SPM pool", "setting": "[7]; [11]", "result": "200/80"}, {"measurement": "polyamine pools", "setting": "[7]; MALME-3 tumor", "result": "almost totally depleted"}, {"measurement": "polyamine pools", "setting": "[7]; PANUT-3 tumor", "result": "almost totally depleted"}, {"measurement": "SAMDC levels", "setting": "[8]; MALME-3 study", "result": "ODC and SAMDC levels were not suppressed"}, {"measurement": "SAMDC levels", "setting": "[8]; PANUT-3 study", "result": "ODC and SAMDC levels were not suppressed"}, {"measurement": "antitumor response at 40 mg/kg versus 80 mg/kg", "setting": "[9]", "result": "very similar to the response at 80 mg/kg"}]}
